According to US8158143B2, “Systems for releasing active ingredients, based on biodegradable or biocompatible polymers with a shape memory effect” (Helmholtz-Zentrum Geesthacht Zentrum fuer Material- und …, priority 2000, dated 2012):

Experiment: Drug release experiments (phosphate buffer pH 7, 37° C.)
Format: physicochemical
Experimental: Furthermore drug release tests were carried out with biodegradable matrix polymers. The above mentioned polyester methacrylate networks were loaded with 5% gentamicin and enoxazin, respectively. Samples having a size of 1×2 cm^2 were cut open and placed into a medium for release (4 ml phosphate buffer, pH 7). The pieces of the films were placed in tubes for a centrifuge, in a manner allowing the buffer solution to contact the films from all sides. The centrifuge tubes were placed into a shaking water bath at 37° C. and at predetermined intervals the medium for release was exchanged completely in order to determine the amount of the drug released. […] Samples are placed into polypropylene centrifuge vessels (which may be closed) of a volume of 15 ml and placed into contact with 4 ml of the releasing medium. […] The release experiment is carried out in a temperature controlled shaking water bath at 37° C. with 60 revolutions per minute. The temperature is controlled with an accuracy of ±0.1 K. […] The experiment is concluded when all of the drug has been released. The establishment of the release profile occurs by means of determination of the released drug by UV-Vis-spectroscopy. The resulting release profiles represent the arithmetical average from parallel experiments regarding the release from three samples of one material. If the experiment is terminated prior to the complete release of the drug from the matrix, a determination of the drug remaining in the polymer network becomes necessary. […] Using 5 ml chloroform the networks are swollen, and destroyed mechanically using a glass rod. Using additional 5 ml chloroform the swollen enoxacin containing fragments are extracted. With […] containing networks extraction is carried out using 5 ml 2-propanol. […] The content of drug remaining in the matrix is added to the content as determined with the release experiment.

[1] = matrix based on paradioxanone and caprolactone, unmodified
[2] = from amorphous matrix N-LG(18)-10 (FIG. 4)

gentamicin
drug release profile at the beginning of the release [1]: rapid release (burst-effect)
time until plateau of release is reached [1]: within two days

O=C1CN(/N=C/c2ccc([N+](=O)[O-])o2)C(=O)N1 [nitrofurantoine]
drug release profile [2]: step profile

CCOc1ccc2nc3cc(N)ccc3c(N)c2c1 [ethacridine lactate]
drug release profile [2]: released more rapidly
drug release profile (networks on the basis of polylactide-co-glycolide, segment Mn about 10000, 15 wt.-% glycolide content): substantially linear release, with a slightly accelerated release at the beginning
